Patent US5736529A, “Use of NAD-related compounds in the treatment of neural trauma to inhibit neurodegeneration” (priority 1996, dated 1998)

What was measured:
[1] = tested on: DNA in brain sections of C57BL/6 mice; assay: DNA fragmentation in brain regions upon treatment with tBuOOH (Tables 1 and 2); format: in vivo, mouse (C57BL/6); details: for Fraction of damaged DNA, Cerebellum / Fraction of damaged DNA, Cortex / Fraction of damaged DNA, Hippo / Fraction of damaged DNA, Midbrain / Fraction of damaged DNA, Striatum / Fraction of damaged DNA, Thalamus: mean ± SD
Method: In general male C57BL/6 mice (2, 8 or 24 months old) were anesthetized with ketamine and xylazine (200 and 2 mg/kg, ip). They were injected ICV with tBuOOH in doses of approximately 22 or 110 mg/kg. This amounts to 1 or 5 μl of a 70% solution of tBuOOH injected slowly into a lateral cerebral ventricle. A mouse brain weighs about 400 mg. […] Animals recovered from anesthesia about 30 minutes or so after tBuOOH administration. […] Low dose mice survived for 48 hours or more.
Young adult (2 month old) and mature (8 month old) C57BL/6 mice were divided into 7 groups with 8 animals in the control group and 4 animals in each of the other groups for both the age groups. A dose of 109.7 mg/kg of tBuOOH was administered ICV, to three groups of mice of both age groups. See Tables 1 and 2. tBuOOH was injected ICV following the technique described in Popick^2. The experiments ended 2 minutes, 5 minutes and 20 minutes after injection of tBuOOH. In the second set of experiments, 21.9 mg/kg of the toxin was administered ICV in the other three groups of mice with experimental durations of 12 hours, 24 hours and 48 hours respectively. The controls were treated with saline rather than tBuOOH.
The brains were removed after the allotted time period and sectioned immediately into the following sections: cortex, striatum, hippocampus, thalamus, midbrain and cerebellum.

[2] = tested on: DNA in brain of mice; format: in vivo, mouse (8 month old C47BL/6); details: 21.9 mg/kg t-BuOOH ICV; 48 hours; 8 month old mice
Method: A gel electrophoresis was performed to investigate whether the DNA fragmentation that is observed at the end of 48 hours is due to apoptosis or not (FIG. 7). 8 month old C47BL/6 mice were treated with ICV with 21.9 mg/kg t-BuOOH 48 hours prior to removal of the brains. Brains were added to lysing buffer and centrifuged. The supernatants were collected as in the DNA fragmentation assay. The samples were extracted with an equal volume of phenol/chloroform/isoamyl alcohol (25:24:1). The DNA in the aqueous phase was precipitated by adding an equal volume of 100% ethanol and maintained at -20° C. overnight. DNA was collected by centrifugation at 12,000 g for 25 minutes, air dried and resuspended in TBE buffer (90 mM Tris, 90 mM boric acid and 2 mM EDTA, pH 8.0). Horizontal electrophoresis was performed for 2 hours at 100 volts in a 0.75% agarose gel with TBE buffer. The gel was stained with ethidium bromide and photographed by UV transillumination.

[3] = tested on: DNA; assay: EPR detection of radicals on mixing DNA and tBuOOH in the presence of DMPO
Excerpt: Therefore, DNA fragmentation is produced following HO. and other radicals induced DNA damage. Necrotic degeneration probably occurs within the first few hours after tBuOOH administration.

[4] = tested on: 24 month old mice; details: 24 month old mice; 21.9 mg/kg t-BuOOH only
[5] = in vivo; cited from earlier work
[6] = 2 month old mice, 21.9 mg/kg ICV, 12 hours
[7] = 2 month old mice, 21.9 mg/kg ICV, 24 hours
[8] = 2 month old mice, 21.9 mg/kg ICV, 48 hours
[9] = 2 month old mice, 109.7 mg/kg ICV, 2 min
[10] = 2 month old mice, 109.7 mg/kg ICV, 2 min, * p<0.05 vs control
[11] = 2 month old mice, 109.7 mg/kg ICV, 5 min
[12] = 2 month old mice, 109.7 mg/kg ICV, 20 min
[13] = 2 month old mice, 109.7 mg/kg ICV, 20 min, * p<0.05 vs control
[14] = 8 month old mice, 21.9 mg/kg ICV, 12 hours
[15] = 8 month old mice, 21.9 mg/kg ICV, 24 hours
[16] = 8 month old mice, 21.9 mg/kg ICV, 48 hours
[17] = 8 month old mice, 109.7 mg/kg ICV, 2 min
[18] = 8 month old mice, 109.7 mg/kg ICV, 5 min
[19] = 8 month old mice, 109.7 mg/kg ICV, 20 min
[20] = 8 month old mice, 109.7 mg/kg ICV, 20 min, * p<0.05 vs control

SMILES: CC(C)(C)OO [tBuOOH, t-butylhydroperoxide]
- effect on cortex DNA ([1]; 2 and 8 month old mice, high or low dose): not affected
- DNA damage in all other brain sections ([1]; 2 and 8 month old mice, high or low dose or both): some vulnerability
- Fraction of damaged DNA, Cerebellum [1, 6]: 0.65 ± 0.19 per gram of tissue
- Fraction of damaged DNA, Cortex [1, 6]: 0.53 ± 0.16 per gram of tissue
- Fraction of damaged DNA, Hippo [1, 6]: 0.40 ± 0.16 per gram of tissue
- Fraction of damaged DNA, Midbrain [1, 6]: 0.83 ± 0.58 per gram of tissue
- Fraction of damaged DNA, Striatum [1, 6]: 1.13 ± 0.49 per gram of tissue
- Fraction of damaged DNA, Thalamus [1, 6]: 1.29 ± 0.39 per gram of tissue
- Fraction of damaged DNA, Cerebellum [1, 7]: 0.93 ± 0.36 per gram of tissue
- Fraction of damaged DNA, Cortex [1, 7]: 0.47 ± 0.13 per gram of tissue
- Fraction of damaged DNA, Hippo [1, 7]: 0.31 ± 0.04 per gram of tissue
- Fraction of damaged DNA, Midbrain [1, 7]: 1.23 ± 0.12 per gram of tissue
- Fraction of damaged DNA, Striatum [1, 7]: 1.16 ± 0.31 per gram of tissue
- Fraction of damaged DNA, Thalamus [1, 7]: 1.44 ± 0.76 per gram of tissue
- Fraction of damaged DNA, Cortex [1, 8]: 0.73 ± 0.03 per gram of tissue
- Fraction of damaged DNA, Hippo [1, 8]: 0.50 ± 0.09 per gram of tissue
- Fraction of damaged DNA, Midbrain [1, 8]: 1.24 ± 0.13 per gram of tissue
- Fraction of damaged DNA, Striatum [1, 8]: 1.66 ± 0.33 per gram of tissue
- Fraction of damaged DNA, Thalamus [1, 8]: 1.25 ± 0.14 per gram of tissue
- Fraction of damaged DNA, Cerebellum ([1]; 2 month old mice, 21.9 mg/kg ICV, 48 hours, * p<0.05 vs control, 1 p<0.05 vs other age group): 1.29 ± 0.12 per gram of tissue
- significant damage in the hippocampus ([1]; 2 month old mice, 109.7 mg/kg): significant damage was seen 2 minutes and 20 minutes after injection
- Fraction of damaged DNA, Cerebellum [1, 9]: 1.17 ± 0.25 per gram of tissue
- Fraction of damaged DNA, Cortex [1, 9]: 0.84 ± 0.33 per gram of tissue
- Fraction of damaged DNA, Striatum [1, 9]: 2.00 ± 0.45 per gram of tissue
- Fraction of damaged DNA, Hippo [1, 10]: 0.66 ± 0.09 per gram of tissue
- Fraction of damaged DNA, Midbrain [1, 10]: 2.48 ± 1.02 per gram of tissue
- Fraction of damaged DNA, Thalamus [1, 10]: 2.66 ± 0.33 per gram of tissue
- Fraction of damaged DNA, Cerebellum [1, 11]: 0.88 ± 0.20 per gram of tissue
- Fraction of damaged DNA, Cortex [1, 11]: 0.82 ± 0.23 per gram of tissue
- Fraction of damaged DNA, Hippo [1, 11]: 0.41 ± 0.05 per gram of tissue
- Fraction of damaged DNA, Midbrain [1, 11]: 1.71 ± 0.77 per gram of tissue
- Fraction of damaged DNA, Striatum [1, 11]: 1.66 ± 0.52 per gram of tissue
- Fraction of damaged DNA, Thalamus ([1]; 2 month old mice, 109.7 mg/kg ICV, 5 min, * p<0.05 vs control): 2.85 ± 0.83 per gram of tissue
- Fraction of damaged DNA, Cortex [1, 12]: 0.76 ± 0.26 per gram of tissue
- Fraction of damaged DNA, Thalamus [1, 12]: 2.46 ± 0.65 per gram of tissue
- Fraction of damaged DNA, Cerebellum [1, 13]: 1.39 ± 0.51 per gram of tissue
- Fraction of damaged DNA, Hippo [1, 13]: 0.66 ± 0.14 per gram of tissue
- Fraction of damaged DNA, Midbrain [1, 13]: 3.09 ± 0.28 per gram of tissue
- Fraction of damaged DNA, Striatum [1, 13]: 2.56 ± 0.49 per gram of tissue
- hippocampus damage at 5 minutes compared with other age group ([1]; 2 month old vs 8 month old mice, 109.7 mg/kg): significantly lower
- significant damage in the cerebellum, early ([1]; 8 month old mice after 5 and 20 minutes, 2 month old mice after 20 minutes): Significant damage was observed after 5 minutes and 20 minutes, in the case of the 8 month old cerebellum and after 20 minutes in the 2 month old cerebellum
- Fraction of damaged DNA, Cerebellum [1, 14]: 0.69 ± 0.15 per gram of tissue
- Fraction of damaged DNA, Cortex [1, 14]: 0.61 ± 0.10 per gram of tissue
- Fraction of damaged DNA, Hippo [1, 14]: 0.46 ± 0.17 per gram of tissue
- Fraction of damaged DNA, Midbrain [1, 14]: 0.76 ± 0.24 per gram of tissue
- Fraction of damaged DNA, Striatum [1, 14]: 1.17 ± 0.33 per gram of tissue
- Fraction of damaged DNA, Thalamus [1, 14]: 1.08 ± 0.30 per gram of tissue
- Fraction of damaged DNA, Cerebellum [1, 15]: 0.67 ± 0.16 per gram of tissue
- Fraction of damaged DNA, Cortex [1, 15]: 0.65 ± 0.13 per gram of tissue
- Fraction of damaged DNA, Hippo [1, 15]: 0.46 ± 0.05 per gram of tissue
- Fraction of damaged DNA, Midbrain [1, 15]: 1.05 ± 0.35 per gram of tissue
- Fraction of damaged DNA, Striatum [1, 15]: 0.99 ± 0.06 per gram of tissue
- Fraction of damaged DNA, Thalamus [1, 15]: 0.75 ± 0.27 per gram of tissue
- Fraction of damaged DNA, Cortex [1, 16]: 0.69 ± 0.10 per gram of tissue
- Fraction of damaged DNA, Hippo [1, 16]: 0.55 ± 0.06 per gram of tissue
- Fraction of damaged DNA, Midbrain [1, 16]: 1.05 ± 0.13 per gram of tissue
- Fraction of damaged DNA, Striatum [1, 16]: 1.15 ± 0.12 per gram of tissue
- Fraction of damaged DNA, Thalamus [1, 16]: 1.65 ± 0.13 per gram of tissue
- Fraction of damaged DNA, Cerebellum ([1]; 8 month old mice, 21.9 mg/kg ICV, 48 hours, * p<0.05 vs control): 1.01 ± 0.11 per gram of tissue
- significant damage in the hippocampus ([1]; 8 month old mice, 109.7 mg/kg): significant damage was seen within 5 minutes
- Fraction of damaged DNA, Cerebellum [1, 17]: 0.80 ± 0.09 per gram of tissue
- Fraction of damaged DNA, Cortex [1, 17]: 0.87 ± 0.17 per gram of tissue
- Fraction of damaged DNA, Hippo [1, 17]: 0.69 ± 0.14 per gram of tissue
- Fraction of damaged DNA, Midbrain [1, 17]: 2.24 ± 0.66 per gram of tissue
- Fraction of damaged DNA, Striatum [1, 17]: 1.56 ± 0.27 per gram of tissue
- Fraction of damaged DNA, Thalamus ([1]; 8 month old mice, 109.7 mg/kg ICV, 2 min, * p<0.05 vs control): 2.29 ± 0.78 per gram of tissue
- Fraction of damaged DNA, Cortex [1, 18]: 0.67 ± 0.16 per gram of tissue
- Fraction of damaged DNA, Midbrain [1, 18]: 1.93 ± 0.26 per gram of tissue
- Fraction of damaged DNA, Striatum [1, 18]: 1.63 ± 0.47 per gram of tissue
- Fraction of damaged DNA, Thalamus [1, 18]: 1.86 ± 0.58 per gram of tissue
- Fraction of damaged DNA, Cerebellum ([1]; 8 month old mice, 109.7 mg/kg ICV, 5 min, * p<0.05 vs control): 1.15 ± 0.12 per gram of tissue
- Fraction of damaged DNA, Hippo ([1]; 8 month old mice, 109.7 mg/kg ICV, 5 min, * p<0.05 vs control, 1 p<0.05 vs other age group): 0.81 ± 0.20 per gram of tissue
- Fraction of damaged DNA, Cortex [1, 19]: 0.70 ± 0.19 per gram of tissue
- Fraction of damaged DNA, Hippo [1, 19]: 0.67 ± 0.15 per gram of tissue
- Fraction of damaged DNA, Cerebellum [1, 20]: 1.46 ± 0.36 per gram of tissue
- Fraction of damaged DNA, Midbrain [1, 20]: 2.98 ± 0.85 per gram of tissue
- Fraction of damaged DNA, Striatum [1, 20]: 2.38 ± 0.41 per gram of tissue
- Fraction of damaged DNA, Thalamus [1, 20]: 2.77 ± 0.30 per gram of tissue
- significant DNA damage in the thalamus ([1]; both age groups): significant DNA damage was found after 2 minutes
- significant damage in the midbrain ([1]; both age groups): significant damage was found after 20 minutes
- significant damage in the cerebellum at 48 hours ([1]; both age groups, 2 month old significantly greater than 8 month old): significant damage was observed in the cerebellum at the end of 48 hours
- significant DNA damage in the striatum ([1]; both age groups, high dose): significant DNA damage was found only after 20 minutes
- DNA fragments on gel electrophoresis [2]: Oligosomal sized DNA fragments were observed along with a smear of fragmentation
- radicals produced by mixing DNA and tBuOOH [3]: produces HO. and other radicals
- deaths [4]: Three out of six
- brain permeation [5]: readily permeate throughout the brain
